Source: patent US20230374071A1, “COMPOSITIONS FOR INDUCING URINARY VOIDING AND DEFECATION” (Dignify Therapeutics, LLC, priority 2020, published 2023)
Converted amounts (≈) assume the structure as drawn. “Also recorded” adds a separate entry of the source. Starred links: 1 amine or outer side, 2 acyl side, 3 side chain; linkers in the order of their positions; H or OH if unused. Non-standard residues stand in square brackets, D forms with d. Residues, ends and D or L forms follow the SMILES beside them. No end group written: not given here. gc = gamma constrained Gly-(R-gamma-lactam)-Leu moiety, (S)-2-((R)-3-amino)-2-oxopyrrolidin-1-yl)-4-methylpentanoyl, between Val and the C-terminal residue, CC(C)C[C@@H](C(=O)[*:2])N1CC[C@@H](N[*:1])C1=O; Nle = CCCC[C@H](N)C(=O)O; βAla = NCCC(=O)O

T1: human NK2 receptor (hNK2R) (Homo sapiens, UniProt P21452)
T1 construct: expressed in transfected cells; host or cells: CHO (CHO-hNK2)
T1 sequence (P21452 1-398): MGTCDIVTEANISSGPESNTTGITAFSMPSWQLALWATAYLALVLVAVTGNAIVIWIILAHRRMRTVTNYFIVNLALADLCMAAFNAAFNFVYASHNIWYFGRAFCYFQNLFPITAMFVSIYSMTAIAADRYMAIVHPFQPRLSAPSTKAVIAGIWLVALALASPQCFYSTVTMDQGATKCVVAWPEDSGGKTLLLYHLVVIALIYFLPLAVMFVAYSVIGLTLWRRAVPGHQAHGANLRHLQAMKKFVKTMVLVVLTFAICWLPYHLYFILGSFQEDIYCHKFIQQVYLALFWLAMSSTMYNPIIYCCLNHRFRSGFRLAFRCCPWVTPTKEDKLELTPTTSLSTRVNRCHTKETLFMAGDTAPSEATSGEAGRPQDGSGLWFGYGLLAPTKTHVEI

T2: human neurokinin 2 receptor (human, UniProt P21452 1-398)
T2 sequence (looked up): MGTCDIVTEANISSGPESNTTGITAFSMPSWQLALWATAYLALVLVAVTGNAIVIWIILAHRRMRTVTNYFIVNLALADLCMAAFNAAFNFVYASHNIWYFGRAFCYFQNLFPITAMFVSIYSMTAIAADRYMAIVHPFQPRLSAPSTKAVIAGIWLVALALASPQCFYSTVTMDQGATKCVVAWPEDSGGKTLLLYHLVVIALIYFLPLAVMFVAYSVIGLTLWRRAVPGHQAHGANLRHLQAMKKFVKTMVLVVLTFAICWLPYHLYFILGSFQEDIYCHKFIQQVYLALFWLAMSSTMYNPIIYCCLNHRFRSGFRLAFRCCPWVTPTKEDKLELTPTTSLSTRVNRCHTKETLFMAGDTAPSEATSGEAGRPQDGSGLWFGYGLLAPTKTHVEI

B1: Compound A (Asp-Ser-Phe-Val-gc-Met-NH2) (peptide)
peptide: XDSFVM
modifications: gc = Gly-(R-gamma-lactam)-Leu, (S)-2-((R)-3-amino)-2-oxopyrrolidin-1-yl)-4-methylpantanoyl moiety, between Val and Met; C-terminal amide (Met-NH2)
B2: Compound H (Asp-Ser-Phe-Val-(β-Ala)-Leu-Nle-NH2) (peptide)
peptide: DSFV[βAla]L[Nle]-NH2
modifications: N-terminus assumed
SMILES: CCCC[C@H](NC(=O)[C@H](CC(C)C)NC(=O)CCNC(=O)[C@@H](NC(=O)[C@H](Cc1ccccc1)NC(=O)[C@H](CO)NC(=O)[C@@H](N)CC(=O)O)C(C)C)C(N)=O
B3: Compound D (Asp-Lys-Phe-Val-gc-Nle-NH2) (peptide)
peptide: DKFV[gc][Nle]-NH2
modifications: N-terminus assumed
SMILES: CCCC[C@H](NC(=O)[C@H](CC(C)C)N1CC[C@@H](NC(=O)[C@@H](NC(=O)[C@H](Cc2ccccc2)NC(=O)[C@H](CCCCN)NC(=O)[C@@H](N)CC(=O)O)C(C)C)C1=O)C(N)=O
B4: Compound I (Lys-Asp-Ser-Phe-Val-(β-Ala)-Leu-Met-NH2) (peptide)
peptide: KDSFV[βAla]LM-NH2
modifications: N-terminus assumed
SMILES: CSCC[C@H](NC(=O)[C@H](CC(C)C)NC(=O)CCNC(=O)[C@@H](NC(=O)[C@H](Cc1ccccc1)NC(=O)[C@H](CO)NC(=O)[C@H](CC(=O)O)NC(=O)[C@@H](N)CCCCN)C(C)C)C(N)=O

Columns and labels:
[1] = Aqueous solubility of lyophilized peptide analogs (observed dissolution in Dulbecco's phosphate buffered saline and water); type: physicochemical; conditions: observed dissolution in both Dulbecco's phosphate buffered saline and water; 5 mg/mL was the maximum tested
Procedure: Peptide analogs of NKA were purified to ≥95% purity. […] Compounds A, B, H, and J (SEQ ID NO: 1, 2, 8, and 10) were considered to be aqueous insoluble (<0.1 mg/mL). *Aqueous solubilities of the lyophilized peptide analogs were determined based on the observed dissolution in both Dulbecco's phosphate buffered saline and water. gc=Gly-(R-gamma-lactam)-Leu or (S)-2-((R)-3-amino)-2-oxopyrrolidin-1-yl)-4-methylpantanoyl.

[2] = target: T3, human NK1 receptor (hNK1R) (Homo sapiens, UniProt P25103); assay: Intracellular calcium mobilization (Fluo-4 AM, FLIPR) in CHO cells expressing recombinant hNK1R; type: cell-based; conditions: for EC50: calcium mobilization, CHO-hNK1 cells, agonist potency, read-out: hNK1R pEC50 (converted); for calcium response at hNK1R: tested at concentrations up to 10 μM
T3 construct: expressed in transfected cells; host or cells: CHO (CHO-hNK1)
Procedure: (§1) Intracellular Calcium Mobilization: The agonist efficacy of compounds A-J at recombinant hNK2R or hNK1Rs expressed in CHO cells was assessed by measuring intracellular calcium mobilization using the calcium-sensitive dye Fluo-4 AM (MOLECULAR PROBES, EUGENE, OR, USA) and a Fluorometric Imaging Plate Reader (FLIPR, MOLECULAR DEVICES, CA, USA). CHO-hNK1 and CHO-hNK2 cells were seeded into black walled clear-bottom 384-well plates) at a density of 10,000 and 15,000 cells per well in 50 μL culture media, respectively, and grown overnight at 37° C. in a humidified CO2-incubator. Cells were washed in washing buffer using a Microplate Washer BIOTEK 384 instrument, leaving 20 μL of buffer per well after the final aspiration. Cells were then incubated at 37° C. with the cytoplasmic Ca^2+ indicator Fluo-4 AM at 2 μM in assay buffer containing 2.5 mM probenecid and 0.02% Pluronic F-127 for 45-60 min (cell loading). Cells were then washed 3 times in washing buffer using a Microplate Washer BIOTEK 384 instrument, leaving 30 μL of buffer in each well after the last wash. Loaded cell plates were transferred to the FLIPR Tetra instrument and calcium responses monitored as described below. A dual read-out FLIPR protocol was used, allowing for characterization of both agonist and antagonist profiles. For quality control, in each compound plate the signal was monitored by evaluating the responses to the reference standards (NKA and Substance P).
(§2) Twelve concentrations of each of the compounds A-J were evaluated for their ability to increase intracellular calcium levels with respect to the agonist reference standard (NKA or Substance P), and the pEC50 value was calculated. […] Concentration response curves of compounds were run in duplicate on two different occasions from the same stock solutions. Test solutions were prepared from 10 mM stock solutions in DMSO and 1 μL of each solution was stamped into V-bottom assay plates containing 49 μL assay buffer. The final concentration of DMSO was 0.5% in each well.
(§3) The results of the intracellular calcium mobilization by in vitro activation of recombinant hNK2Rs or hNK1Rs expressed in CHO cells as described above for the 10 peptide analogs A-J, is shown in Table 3 below. In addition, FIGS. 3A-3C are exemplary graphs showing stimulation of [Ca^2+] response in CHO cells expressing human NK2 or NK1 receptors by Compound A, Compound B, and Compound G, respectively. In FIGS. 3A-3C, data are expressed as % of the maximal response to substance P for NK1 receptors, or NKA for NK2 receptors. Each data point is the mean±SD from duplicate determinations.

[3] = target: T1, human NK2 receptor (hNK2R); assay: Intracellular calcium mobilization (Fluo-4 AM, FLIPR) in CHO cells expressing recombinant hNK2R; type: cell-based; conditions: for EC50: calcium mobilization, CHO-hNK2 cells, agonist potency, read-out: hNK2R pEC50 (converted); for selectivity for activation of hNK2Rs vs hNK1Rs: from ratios of EC50s; for calcium response at hNK2R: tested at concentrations up to 10 μM
Procedure: as §1, §2, §3

[4] = target: T4, human neurokinin 1 receptor (human, UniProt P25103 1-407); assay: cell-based or functional assay
[5] = target: T2, human neurokinin 2 receptor; assay: cell-based or functional assay
[6] = target: T4, human neurokinin 1 receptor; assay: cell-based or functional assay; remark: listed apart in the source
[7] = target: T2, human neurokinin 2 receptor; assay: cell-based or functional assay; remark: listed apart in the source

T3 sequence (P25103 whole entry): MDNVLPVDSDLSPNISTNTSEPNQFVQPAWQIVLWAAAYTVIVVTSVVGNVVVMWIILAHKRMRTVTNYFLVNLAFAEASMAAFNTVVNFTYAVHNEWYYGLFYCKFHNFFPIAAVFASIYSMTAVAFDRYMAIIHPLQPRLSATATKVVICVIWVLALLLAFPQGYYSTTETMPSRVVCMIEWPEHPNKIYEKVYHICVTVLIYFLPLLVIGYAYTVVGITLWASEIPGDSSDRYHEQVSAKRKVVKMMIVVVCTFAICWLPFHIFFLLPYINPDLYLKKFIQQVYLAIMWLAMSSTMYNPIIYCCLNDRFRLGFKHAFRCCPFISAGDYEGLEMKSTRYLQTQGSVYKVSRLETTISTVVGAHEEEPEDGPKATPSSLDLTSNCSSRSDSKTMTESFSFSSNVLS
T4 sequence (P25103 whole entry): as above

Molecule	solubility [1]	EC50 [2]	calcium response at hNK1R [2]	EC50 [3]	selectivity for activation of hNK2Rs vs hNK1Rs [3]	calcium response at hNK2R [3]	Aqueous solubility [1]	hNK1R pEC50 (intracellular calcium mobilization, FLIPR, CHO cells) [4]	NK2R/NK1R selectivity ratio [5]	hNK2R pEC50 (intracellular calcium mobilization, FLIPR, CHO cells) [5]	maximal calcium response [6]	maximal calcium response [7]
CSCC[C@H](NC(=O)[C@H](CC(C)C)NC(=O)CCNC(=O)[C@@H](NC(=O)[C@H](Cc1ccccc1)NC(=O)[C@H](CO)NC(=O)[C@H](CC(=O)O)NC(=O)[C@@H](N)CCCCN)C(C)C)C(N)=O [I, Lys-Asp-Ser-Phe-Val-(β-Ala)-Leu-Met-NH2] (H-KDSFV[βAla]LM-NH2; N-terminus assumed)	≥ 5000 µg/mL	> 10 µM	did not elicit a significant calcium response; also recorded: do not elicit a significant calcium response	> 10 µM	did not exhibit selectivity for hNK2Rs; also recorded: do not exhibit selectivity for hNK2Rs	did not elicit a significant calcium response; also recorded: do not elicit a significant calcium response	–	–	–	–	–	–
CCCC[C@H](NC(=O)[C@H](CC(C)C)NC(=O)CCNC(=O)[C@@H](NC(=O)[C@H](Cc1ccccc1)NC(=O)[C@H](CO)NC(=O)[C@@H](N)CC(=O)O)C(C)C)C(N)=O [H, Asp-Ser-Phe-Val-(β-Ala)-Leu-Nle-NH2] (H-DSFV[βAla]L[Nle]-NH2; N-terminus assumed)	< 100 µg/mL	> 10 µM	did not elicit a significant calcium response; also recorded: do not elicit a significant calcium response	> 10 µM	did not exhibit selectivity for hNK2Rs; also recorded: do not exhibit selectivity for hNK2Rs	did not elicit a significant calcium response; also recorded: do not elicit a significant calcium response	<100 µg/mL	–	–	–	–	–
CCCC[C@H](NC(=O)[C@H](CC(C)C)N1CC[C@@H](NC(=O)[C@@H](NC(=O)[C@H](Cc2ccccc2)NC(=O)[C@H](CCCCN)NC(=O)[C@@H](N)CC(=O)O)C(C)C)C1=O)C(N)=O [Compound D, Asp-Lys-Phe-Val-gc-Nle-NH2]	5000 µg/mL (≈ 6.13 mM)	0.479 µM	–	0.00363 µM	–	–	–	–	–	–	–	–
B1	–	–	–	–	–	–	–	6.31	724 fold	9.17	≥ 85 % maximal response compared to Substance P	≥ 85 % maximal response compared to Neurokinin A
B2	–	–	–	–	–	–	–	< 5	–	< 5	–	–
B3	–	–	–	–	–	–	–	6.32	132 fold	8.44	≥ 85 % maximal response compared to Substance P	≥ 85 % maximal response compared to Neurokinin A
B4	–	–	–	–	–	–	–	< 5	–	< 5	–	–
